Assay results reported in ChEMBL document CHEMBL1139487, “Discovery of corticotropin releasing factor 2 receptor selective sauvagine analogues for treatment of skeletal muscle atrophy” (J Med Chem, 2005).
pEC50: −log10 of the molar value. Square brackets hold non-standard residues; d marks the D form. Peptide text beside a SMILES is read from it. 2Nal = N[C@@H](Cc1ccc2ccccc2c1)C(=O)O; pGlu = O=C1CC[C@@H](C(=O)O)N1

Columns and labels:
[1] = tested on: Mus musculus; assay: In vivo percentage inhibition against casting induced tibialis anterior mass loss in mouse at a dosage of 100 ug/kg/day; type: functional
[2] = target: Corticotropin-releasing factor receptor 2 (Mus musculus, UniProt Q60748); assay: In vitro effective concentration for mouse corticotropin releasing factor 2 receptor
Sequence of Corticotropin-releasing factor receptor 2 (Q60748 whole entry): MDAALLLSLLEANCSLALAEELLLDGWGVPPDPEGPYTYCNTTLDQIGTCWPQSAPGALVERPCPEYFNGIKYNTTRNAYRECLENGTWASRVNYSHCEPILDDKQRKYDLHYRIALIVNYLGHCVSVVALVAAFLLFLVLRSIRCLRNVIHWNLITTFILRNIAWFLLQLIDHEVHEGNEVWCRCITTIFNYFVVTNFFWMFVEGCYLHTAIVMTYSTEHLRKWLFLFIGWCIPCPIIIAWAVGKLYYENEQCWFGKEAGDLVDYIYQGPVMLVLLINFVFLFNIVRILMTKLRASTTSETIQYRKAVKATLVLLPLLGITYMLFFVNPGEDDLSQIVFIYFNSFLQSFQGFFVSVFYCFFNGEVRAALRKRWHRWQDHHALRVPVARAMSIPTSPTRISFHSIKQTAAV

[3] = tested on: Mus musculus; assay: In vivo percentage inhibition against casting induced tibialis anterior mass loss in mouse at a dosage of 30 ug/kg/day; type: functional
[4] = target: Corticotropin-releasing factor receptor 2 (Mus musculus) (UniProt Q60748); assay: In vitro agonistic activity against mouse corticotropin releasing factor 2 receptor; type: functional
Sequence of Corticotropin-releasing factor receptor 2 (Mus musculus) (Q60748 whole entry): as above

[5] = species on record: Mus musculus; assay: Selectivity ratio of EC50s for mouse corticotropin releasing factor receptors 1 and 2
[6] = target: T1, Corticotropin-releasing factor receptor 1 (Mus musculus, UniProt P35347); assay: In vitro effective concentration for mouse corticotropin releasing factor 1 receptor
T1 sequence (P35347 whole entry): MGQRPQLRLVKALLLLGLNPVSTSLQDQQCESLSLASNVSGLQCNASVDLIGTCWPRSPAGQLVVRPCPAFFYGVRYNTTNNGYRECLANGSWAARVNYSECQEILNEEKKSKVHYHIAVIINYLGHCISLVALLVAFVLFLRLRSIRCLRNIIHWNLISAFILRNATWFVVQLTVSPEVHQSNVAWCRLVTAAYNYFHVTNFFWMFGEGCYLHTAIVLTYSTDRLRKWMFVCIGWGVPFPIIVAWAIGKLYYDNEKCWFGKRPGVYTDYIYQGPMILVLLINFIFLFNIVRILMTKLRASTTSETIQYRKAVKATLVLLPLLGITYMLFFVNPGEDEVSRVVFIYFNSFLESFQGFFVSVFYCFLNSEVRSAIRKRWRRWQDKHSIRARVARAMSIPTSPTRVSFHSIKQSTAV

[7] = tested on: Mus musculus; assay: In vivo percentage inhibition against casting induced tibialis anterior mass loss in mouse at a dosage of 10 ug/kg/day; type: functional
[8] = target: T2, Corticotropin-releasing factor receptor 1 (Mus musculus) (UniProt P35347); assay: In vitro agonistic activity against mouse corticotropin releasing factor 1 receptor; type: functional
T2 sequence (whole entry): T1 sequence (P35347 whole entry)

CC[C@H](C)[C@H](NC(=O)[C@@H](NC(=O)[C@H](CC(=O)O)NC(=O)[C@H](CC(C)C)NC(=O)[C@H](CC(C)C)NC(=O)[C@H](CC(C)C)NC(=O)[C@H](CCCN=C(N)N)NC(=O)[C@H](CC(N)=O)NC(=O)[C@H](CC(N)=O)NC(=O)[C@H](C)NC(=O)[C@H](C)NC(=O)[C@H](CCC(N)=O)NC(=O)[C@H](CCC(N)=O)NC(=O)[C@H](CCCCN)NC(=O)[C@H](CCC(=O)O)NC(=O)[C@H](CCCCN)NC(=O)[C@H](CCC(=O)O)NC(=O)[C@H](CCC(N)=O)NC(=O)[C@H](CCCCN)NC(=O)[C@H](CCC(=O)O)NC(=O)[C@@H](NC(=O)[C@H](CCC(=O)O)NC(=O)[C@@H](NC(=O)[C@H](CCSC)NC(=O)[C@H](CCCCN)NC(=O)[C@H](CCCN=C(N)N)NC(=O)[C@H](CC(C)C)NC(=O)[C@H](Cc1ccc2ccccc2c1)NC(=O)[C@H](Cc1c[nH]c2ccccc12)NC(=O)[C@H](CC(C)C)NC(=O)[C@@H]1CCCN1C(=O)[C@H](CC(C)C)NC(=O)[C@H](CC(=O)O)NC(=O)[C@@H](NC(=O)[C@H](CO)NC(=O)[C@@H](NC(=O)[C@@H]1CCCN1C(=O)[C@@H]1CCCN1C(=O)CNC(=O)[C@@H]1CCC(=O)N1)[C@@H](C)CC)[C@@H](C)CC)[C@@H](C)CC)[C@@H](C)CC)[C@@H](C)O)C(=O)O ([pGlu]GPPISIDLPLW[2Nal]LRKMIEIEKQEKEKQQAANNRLLLDTI-OH)
inhibition in vivo at 0.1 mg/kg/day [1]: 79%
pEC50 [2]: 8.48
inhibition in vivo at 0.03 mg/kg/day [3]: 45%
Emax [4]: 73%
Selectivity [5]: 19
pEC50 [6]: 7.20
inhibition in vivo at 0.01 mg/kg/day [7]: 53%
Emax [8]: 100%

CC[C@H](C)[C@H](NC(=O)[C@@H](NC(=O)[C@H](CC(=O)O)NC(=O)[C@H](CC(C)C)NC(=O)[C@H](CC(C)C)NC(=O)[C@H](CC(C)C)NC(=O)[C@H](CCCN=C(N)N)NC(=O)[C@H](CC(N)=O)NC(=O)[C@H](CC(N)=O)NC(=O)[C@H](C)NC(=O)[C@H](C)NC(=O)[C@H](CCC(N)=O)NC(=O)[C@H](CCC(N)=O)NC(=O)[C@H](CCCCN)NC(=O)[C@H](CCC(=O)O)NC(=O)[C@H](CCCCN)NC(=O)[C@H](CCC(=O)O)NC(=O)[C@H](CCC(N)=O)NC(=O)[C@H](CCCCN)NC(=O)[C@H](CCC(=O)O)NC(=O)[C@@H](NC(=O)[C@H](CCC(=O)O)NC(=O)[C@@H](NC(=O)[C@H](CCSC)NC(=O)[C@H](CCCCN)NC(=O)[C@H](CCCN=C(N)N)NC(=O)[C@H](CC(C)C)NC(=O)[C@H](CC(C)C)NC(=O)[C@H](Cc1c[nH]c2ccccc12)NC(=O)[C@@H](NC(=O)[C@@H]1CCCN1C(=O)[C@H](CC(C)C)NC(=O)[C@H](CC(=O)O)NC(=O)[C@@H](NC(=O)[C@H](CO)NC(=O)[C@@H](NC(=O)[C@@H]1CCCN1C(=O)[C@@H]1CCCN1C(=O)CNC(=O)[C@@H]1CCC(=O)N1)[C@@H](C)CC)[C@@H](C)CC)[C@@H](C)O)[C@@H](C)CC)[C@@H](C)CC)[C@@H](C)O)C(=O)O
inhibition in vivo at 0.1 mg/kg/day [1]: 91%
pEC50 [2]: 7.82
inhibition in vivo at 0.03 mg/kg/day [3]: 84%
Emax [4]: 100%
Selectivity [5]: > 66
pEC50 [6]: < 6.00
inhibition in vivo at 0.01 mg/kg/day [7]: 30%
Emax [8]: 43%

CC[C@H](C)[C@H](NC(=O)[C@@H](NC(=O)[C@H](CC(=O)O)NC(=O)[C@H](CC(C)C)NC(=O)[C@H](CC(C)C)NC(=O)[C@H](CC(C)C)NC(=O)[C@H](CCCN=C(N)N)NC(=O)[C@H](CC(N)=O)NC(=O)[C@H](CC(N)=O)NC(=O)[C@H](C)NC(=O)[C@H](C)NC(=O)[C@H](CCC(N)=O)NC(=O)[C@H](CCC(N)=O)NC(=O)[C@H](CCCCN)NC(=O)[C@H](CCC(=O)O)NC(=O)[C@H](CCCCN)NC(=O)[C@H](CCC(=O)O)NC(=O)[C@H](CCC(N)=O)NC(=O)[C@H](CCCCN)NC(=O)[C@H](CCC(=O)O)NC(=O)[C@@H](NC(=O)[C@H](CCC(=O)O)NC(=O)[C@@H](NC(=O)[C@H](CCSC)NC(=O)[C@H](CCCCN)NC(=O)[C@H](CCCN=C(N)N)NC(=O)[C@H](CC(C)C)NC(=O)[C@H](CC(C)C)NC(=O)[C@@H](NC(=O)[C@H](CCC(N)=O)NC(=O)[C@@H]1CCCN1C(=O)[C@H](CC(C)C)NC(=O)[C@H](CC(=O)O)NC(=O)[C@@H](NC(=O)[C@H](CO)NC(=O)[C@@H](NC(=O)[C@@H]1CCCN1C(=O)[C@@H]1CCCN1C(=O)CNC(=O)[C@@H]1CCC(=O)N1)[C@@H](C)CC)[C@@H](C)CC)[C@@H](C)CC)[C@@H](C)CC)[C@@H](C)CC)[C@@H](C)O)C(=O)O
inhibition in vivo at 0.1 mg/kg/day [1]: 73%
inhibition in vivo at 0.03 mg/kg/day [3]: 14%
Emax [4]: 93%
Selectivity [5]: 83
inhibition in vivo at 0.01 mg/kg/day [7]: 32%
Emax [8]: 93%

CC[C@H](C)[C@H](NC(=O)[C@@H](NC(=O)[C@H](CC(=O)O)NC(=O)[C@H](CC(C)C)NC(=O)[C@H](CC(C)C)NC(=O)[C@H](CC(C)C)NC(=O)[C@H](CCCN=C(N)N)NC(=O)[C@H](CC(N)=O)NC(=O)[C@H](CC(N)=O)NC(=O)[C@H](C)NC(=O)[C@H](C)NC(=O)[C@H](CCC(N)=O)NC(=O)[C@H](CCC(N)=O)NC(=O)[C@H](CCCCN)NC(=O)[C@H](CCC(=O)O)NC(=O)[C@H](CCCCN)NC(=O)[C@H](CCC(=O)O)NC(=O)[C@H](CCC(N)=O)NC(=O)[C@H](CCCCN)NC(=O)[C@H](CCC(=O)O)NC(=O)[C@@H](NC(=O)[C@H](CCC(=O)O)NC(=O)[C@@H](NC(=O)[C@H](CCSC)NC(=O)[C@H](CCCCN)NC(=O)[C@H](CCCN=C(N)N)NC(=O)[C@H](CC(C)C)NC(=O)[C@H](CC(C)C)NC(=O)[C@H](Cc1c[nH]cn1)NC(=O)[C@H](CC(C)C)NC(=O)[C@@H]1CCCN1C(=O)[C@H](CC(C)C)NC(=O)[C@H](CC(=O)O)NC(=O)[C@@H](NC(=O)[C@H](CO)NC(=O)[C@@H](NC(=O)[C@@H]1CCCN1C(=O)[C@@H]1CCCN1C(=O)CNC(=O)[C@@H]1CCC(=O)N1)[C@@H](C)CC)[C@@H](C)CC)[C@@H](C)CC)[C@@H](C)CC)[C@@H](C)O)C(=O)O
pEC50 [2]: 8.72
Emax [4]: 81%
Selectivity [5]: 28
pEC50 [6]: 7.28
Emax [8]: 96%

CC[C@H](C)[C@H](NC(=O)[C@@H](NC(=O)[C@H](CC(=O)O)NC(=O)[C@H](CC(C)C)NC(=O)[C@H](CC(C)C)NC(=O)[C@H](CC(C)C)NC(=O)[C@H](CCCN=C(N)N)NC(=O)[C@H](CC(N)=O)NC(=O)[C@H](CC(N)=O)NC(=O)[C@H](C)NC(=O)[C@H](C)NC(=O)[C@H](CCC(N)=O)NC(=O)[C@H](CCC(N)=O)NC(=O)[C@H](CCCCN)NC(=O)[C@H](CCC(=O)O)NC(=O)[C@H](CCCCN)NC(=O)[C@H](CCC(=O)O)NC(=O)[C@H](CCC(N)=O)NC(=O)[C@H](CCCCN)NC(=O)[C@H](CCC(=O)O)NC(=O)[C@@H](NC(=O)[C@H](CCC(=O)O)NC(=O)[C@@H](NC(=O)[C@H](CCSC)NC(=O)[C@H](CCCCN)NC(=O)[C@H](CCCN=C(N)N)NC(=O)[C@H](CC(C)C)NC(=O)[C@H](CC(C)C)NC(=O)[C@@H](NC(=O)[C@H](CC(C)C)NC(=O)[C@@H]1CCCN1C(=O)[C@H](CC(C)C)NC(=O)[C@H](CC(=O)O)NC(=O)[C@@H](NC(=O)[C@H](CO)NC(=O)[C@@H](NC(=O)[C@@H]1CCCN1C(=O)[C@@H]1CCCN1C(=O)CNC(=O)[C@@H]1CCC(=O)N1)[C@@H](C)CC)[C@@H](C)CC)[C@@H](C)CC)[C@@H](C)CC)[C@@H](C)CC)[C@@H](C)O)C(=O)O
pEC50 [2]: 8.30
Emax [4]: 96%
Selectivity [5]: 21
pEC50 [6]: 6.97
Emax [8]: 94%

CC[C@H](C)[C@H](NC(=O)[C@@H](NC(=O)[C@H](CC(=O)O)NC(=O)[C@H](CC(C)C)NC(=O)[C@H](CC(C)C)NC(=O)[C@H](CC(C)C)NC(=O)[C@H](CCCN=C(N)N)NC(=O)[C@H](CC(N)=O)NC(=O)[C@H](CC(N)=O)NC(=O)[C@H](C)NC(=O)[C@H](C)NC(=O)[C@H](CCC(N)=O)NC(=O)[C@H](CCC(N)=O)NC(=O)[C@H](CCCCN)NC(=O)[C@H](CCC(=O)O)NC(=O)[C@H](CCCCN)NC(=O)[C@H](CCC(=O)O)NC(=O)[C@H](CCC(N)=O)NC(=O)[C@H](CCCCN)NC(=O)[C@H](CCC(=O)O)NC(=O)[C@@H](NC(=O)[C@H](CCC(=O)O)NC(=O)[C@@H](NC(=O)[C@H](CCSC)NC(=O)[C@H](CCCCN)NC(=O)[C@H](CCCN=C(N)N)NC(=O)[C@H](CC(C)C)NC(=O)[C@H](CC(C)C)NC(=O)[C@H](Cc1c[nH]c2ccccc12)NC(=O)[C@H](CC(C)C)NC(=O)[C@@H]1CCCN1C(=O)[C@H](CC(C)C)NC(=O)[C@H](CC(=O)O)NC(=O)[C@@H](NC(=O)[C@H](CO)NC(=O)[C@@H](NC(=O)[C@@H]1CCCN1C(=O)[C@@H]1CCCN1C(=O)CNC(=O)[C@@H]1CCC(=O)N1)[C@@H](C)CC)[C@@H](C)CC)[C@@H](C)CC)[C@@H](C)CC)[C@@H](C)O)C(=O)O
pEC50 [2]: 8.32
Emax [4]: 96%
Selectivity [5]: 20
pEC50 [6]: 7.01
Emax [8]: 100%
